From patent US11111237B2, “Bicyclic compound and use thereof” (SK BIOPHARMACEUTICALS CO., LTD., priority 2019, dated 2021)
Counter-ions that a name gives are not always drawn.

Target: PRMT5-MEP50 enzyme complex (Homo sapiens (Human), UniProt O14744)
Experiment: PRMT5 enzyme activity in vitro assay (methylation of histone H4R3, ELISA absorbance at 450 nm)
Assay type: biochemical
Settings: SAM, histone H4 peptide, room temperature 2 hours, 8 points from 10 μM to 0.128 nM
Outline: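 Human PRMT5-MEP50 was prepared at 5 μg/mL with SAM at 2 μM and reacted 2 h at room temperature on plate-coated histone H4 (1-20) peptide. An 8-point 1:5 compound series ran from 10 μM to 0.128 nM. H4R3 methylation was detected by antibody/HRP ELISA at 450 nm to give IC50.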

Sequence of PRMT5-MEP50 enzyme complex (O14744 2-637): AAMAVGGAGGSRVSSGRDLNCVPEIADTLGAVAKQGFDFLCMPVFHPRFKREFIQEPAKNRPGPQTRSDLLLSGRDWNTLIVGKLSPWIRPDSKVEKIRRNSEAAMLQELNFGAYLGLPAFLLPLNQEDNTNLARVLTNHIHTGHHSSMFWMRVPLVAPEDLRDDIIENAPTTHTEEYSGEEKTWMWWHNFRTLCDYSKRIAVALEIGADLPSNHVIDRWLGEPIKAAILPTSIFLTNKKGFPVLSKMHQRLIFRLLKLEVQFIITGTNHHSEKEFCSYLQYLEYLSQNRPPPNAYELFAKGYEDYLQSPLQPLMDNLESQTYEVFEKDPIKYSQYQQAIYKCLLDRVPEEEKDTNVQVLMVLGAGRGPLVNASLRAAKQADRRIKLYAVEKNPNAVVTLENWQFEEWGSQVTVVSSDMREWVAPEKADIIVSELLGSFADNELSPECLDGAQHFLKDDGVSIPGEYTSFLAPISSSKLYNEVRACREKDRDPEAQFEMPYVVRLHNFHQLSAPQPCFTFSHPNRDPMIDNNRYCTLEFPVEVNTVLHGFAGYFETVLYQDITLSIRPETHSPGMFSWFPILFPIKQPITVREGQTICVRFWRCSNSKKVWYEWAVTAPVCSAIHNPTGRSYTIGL
Sequence of PRMT5-MEP50 enzyme complex (Q9BQA1 2-342 partner): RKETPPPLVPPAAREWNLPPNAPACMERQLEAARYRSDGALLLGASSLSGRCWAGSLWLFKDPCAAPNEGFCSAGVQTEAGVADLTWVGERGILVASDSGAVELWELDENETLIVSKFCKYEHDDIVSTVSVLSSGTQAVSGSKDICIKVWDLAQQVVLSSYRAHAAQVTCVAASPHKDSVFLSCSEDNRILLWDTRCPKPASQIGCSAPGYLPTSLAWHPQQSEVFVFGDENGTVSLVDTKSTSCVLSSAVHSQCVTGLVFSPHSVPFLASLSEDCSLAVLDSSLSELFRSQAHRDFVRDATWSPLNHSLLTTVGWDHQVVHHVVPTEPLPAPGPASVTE

SMILES | IC50
CCN1CCCC(Oc2ccc3c(c2)OCCN(C[C@H](O)CN2CCc4ccccc4C2)C3=O)C1 (stereo partly drawn) [Example 69, 4-[(2R)-3-(3,4-dihydro-1H-isoquinolin-2-yl)-2-hydroxy-propyl]-8-[(1-ethyl-3-piperidyl)oxy]-2,3-dihydro-1,4-benzoxazepin-5-one] | 1 to 100 nM
O=C1CCCN1CCOc1ccc2c(c1)OCCN(C[C@H](O)CN1CCc3ccccc3C1)C2=O [Example 74, 4-[(2R)-3-(3,4-dihydro-1H-isoquinolin-2-yl)-2-hydroxy-propyl]-8-[2-(2-oxopyrrolidin-1-yl)ethoxy]-2,3-dihydro-1,4-benzoxazepin-5-one] | 100 to 1000 nM
O=C1c2ccc(-c3cccnc3)cc2OCCN1C[C@H](O)CN1CCc2ccccc2C1 [Example 230, 4-[(2R)-3-(3,4-dihydro-1H-isoquinolin-2-yl)-2-hydroxy-propyl]-8-(3-pyridyl)-2,3-dihydro-1,4-benzoxazepin-5-one] | 1 to 100 nM
CN1CCN(C[C@H](O)CN2CCc3ccccc3C2)C(=O)c2ccc(C3=CCCCC3)cc21 [Example 118, 8-(cyclohexen-1-yl)-4-[(2R)-3-(3,4-dihydro-1H-isoquinolin-2-yl)-2-hydroxy-propyl]-1-methyl-2,3-dihydro-1,4-benzodiazepin-5-one] | 1 to 100 nM
CC1(C)CN(C[C@H](O)CN2CCc3ccccc3C2)C(=O)c2ccc(CN3CCOCC3)nc2O1 [Example 192, 4-[(2R)-3-(3,4-dihydro-1H-isoquinolin-2-yl)-2-hydroxy-propyl]-2,2-dimethyl-8-(morpholinomethyl)-3H-pyrido[3,2-f][1,4]oxazepin-5-one] | 100 to 1000 nM
CCN1CCOC(COc2ccc3c(c2)OCCN(C[C@H](O)CN2CCc4ccccc4C2)C3=O)C1 (stereo partly drawn) [Example 105, 4-[(2R)-3-(3,4-dihydro-1H-isoquinolin-2-yl)-2-hydroxy-propyl]-8-[(4-ethylmorpholin-2-yl)methoxy]-2,3-dihydro-1,4-benzoxazepin-5-one] | 100 to 1000 nM
CCN1C2CCC1CC(Oc1ccc3c(c1)N(C)CCN(C[C@H](O)CN1CCc4ccccc4C1)C3=O)C2 (stereo partly drawn) [Example 137, 4-[(2R)-3-(3,4-dihydro-1H-isoquinolin-2-yl)-2-hydroxy-propyl]-8-[(8-ethyl-8-azabicyclo[3.2.1]octan-3-yl)oxy]-1-methyl-2,3-dihydro-1,4-benzodiazepin-5-one] | 1 to 100 nM
CC1CN(C(=O)c2ccc3c(c2)OCCN(C[C@H](O)CN2CCc4ccccc4C2)C3=O)CC(C)O1 (stereo partly drawn) [Example 187, 4-[(2R)-3-(3,4-dihydro-1H-isoquinolin-2-yl)-2-hydroxy-propyl]-8-(2,6-dimethylmorpholin-4-carbonyl)-2,3-dihydro-1,4-benzoxazepin-5-one] | 100 to 1000 nM
O=C1c2ccc(Cl)cc2CCCN1C[C@H](O)CN1CCc2ccccc2C1 [Example 154, 7-chloro-2-[(2R)-3-(3,4-dihydro-1H-isoquinolin-2-yl)-2-hydroxy-propyl]-4,5-dihydro-3H-2-benzazepin-1-one] | 1 to 100 nM
O=C1c2ccc(C(=O)N3CC4CCC3C4)cc2OCCN1C[C@H](O)CN1CCc2ccccc2C1 (stereo partly drawn) [Example 188, 8-(2-azabicyclo[2.2.1]heptane-2-carbonyl)-4-[(2R)-3-(3,4-dihydro-1H-isoquinolin-2-yl)-2-hydroxy-propyl]-2,3-dihydro-1,4-benzoxazepin-5-one] | 100 to 1000 nM
CCC1CCCN1Cc1ccc2c(c1)OCCN(C[C@H](O)CN1CCc3ccccc3C1)C2=O (stereo partly drawn) [Example 48, 4-[(2R)-3-(3,4-dihydro-1H-isoquinolin-2-yl)-2-hydroxy-propyl]-8-[(2-ethylpyrrolidin-1-yl)methyl]-2,3-dihydro-1,4-benzoxazepin-5-one] | 100 to 1000 nM
O=C1c2ccc(Cl)nc2OCCN1C[C@H](O)CN1CCc2ccccc2C1 [Example 153, 8-chloro-4-[(2R)-3-(3,4-dihydro-1H-isoquinolin-2-yl)-2-hydroxy-propyl]-2,3-dihydropyrido[3,2-f][1,4]oxazepin-5-one] | 100 to 1000 nM
CN1CCN(C[C@H](O)CN2CCc3ccccc3C2)C(=O)c2ccc(OC3CCNCC3F)cc21 (stereo partly drawn) [Example 135, 4-[(2R)-3-(3,4-dihydro-1H-isoquinolin-2-yl)-2-hydroxy-propyl]-8-[(3-fluoro-4-piperidyl)oxy]-1-methyl-2,3-dihydro-1,4-benzodiazepin-5-one; dihydrochloride] | 100 to 1000 nM

Continued, values first:

IC50 | SMILES
100 to 1000 nM | CC(C)N1CC=C(c2ccc3c(c2)OCCN(C[C@H](O)CN2CCc4ccccc4C2)C3=O)CC1 [Example 19, 4-[(2R)-3-(3,4-dihydro-1H-isoquinolin-2-yl)-2-hydroxy-propyl]-8-(1-isopropyl-3,6-dihydro-2H-pyridin-4-yl)-2,3-dihydro-1,4-benzoxazepin-5-one]
1 to 100 nM | O=C1c2ccc(OC3CN(C(=O)C(F)F)C3)cc2OCCN1C[C@H](O)CN1CCc2ccccc2C1 [Example 161]
100 to 1000 nM | O=C1c2ccc(CN3CCC(F)(F)C3)cc2OCCN1C[C@H](O)CN1CCc2ccccc2C1 [Example 52, 8-[(3,3-difluoropyrrolidin-1-yl)methyl]-4-[(2R)-3-(3,4-dihydro-1H-isoquinolin-2-yl)-2-hydroxy-propyl]-2,3-dihydro-1,4-benzoxazepin-5-one]
100 to 1000 nM | CC1(C)CN(C[C@H](O)CN2CCc3ccccc3C2)C(=O)c2ccc(CN3CCCC3)cc2O1 [Example 179, 4-[(2R)-3-(3,4-dihydro-1H-isoquinolin-2-yl)-2-hydroxy-propyl]-2,2-dimethyl-8-(pyrrolidin-1-ylmethyl)-3H-1,4-benzoxazepin-5-one]
100 to 1000 nM | Cc1ccc2c(c1)OCCN(C[C@H](O)CN1CCc3ccccc3C1)C2=O [Example 10, 4-[(2R)-3-(3,4-dihydro-1H-isoquinolin-2-yl)-2-hydroxy-propyl]-8-methyl-2,3-dihydro-1,4-benzoxazepin-5-one]
100 to 1000 nM | O=C1c2ccc(CN3CCC4(CC3)COC4)cc2OCCN1C[C@H](O)CN1CCc2ccccc2C1 [Example 251, 4-[(2R)-3-(3,4-dihydro-1H-isoquinolin-2-yl)-2-hydroxypropyl]-8-(2-oxa-7-azaspiro[3.5]nonan-7-ylmethyl)-2,3-dihydro-1,4-benzoxazepin-5-one]
100 to 1000 nM | O=C1c2ccc(CN3CCCOCC3)cc2OCCN1C[C@H](O)CN1CCc2ccccc2C1 [Example 39, 4-[(2R)-3-(3,4-dihydro-1H-isoquinolin-2-yl)-2-hydroxy-propyl]-8-(1,4-oxazepan-4-ylmethyl)-2,3-dihydro-1,4-benzoxazepin-5-one]
100 to 1000 nM | CC1(C)CN(C[C@H](O)CN2CCc3ccccc3C2)C(=O)c2ccc(CN3CCN(C=O)CC3)cc2O1 [Example 169, 4-[[4-[(2R)-3-(3,4-dihydro-1H-isoquinolin-2-yl)-2-hydroxy-propyl]-2,2-dimethyl-5-oxo-3H-1,4-benzoxazepin-8-yl]methyl]piperazine-1-carbaldehyde]
100 to 1000 nM | O=C1c2ccc(OCCN3CCOCC3)cc2OCCN1C[C@H](O)CN1CCc2ccccc2C1 [Example 73, 4-[(2R)-3-(3,4-dihydro-1H-isoquinolin-2-yl)-2-hydroxy-propyl]-8-(2-morpholinoethoxy)-2,3-dihydro-1,4-benzoxazepin-5-one]
100 to 1000 nM | N#CCN1CCC(Oc2ccc3c(c2)OCCN(C[C@H](O)CN2CCc4ccccc4C2)C3=O)CC1 [Example 159]
